Here are results for 21 compounds from patent US20170001990A1 (Genentech, Inc., priority 2014, published 2017).

Structures are written as SMILES.

What is called IC50 is the concentration that gives 50% inhibition.

This experiment addresses Human recombinant carboxy-terminal his-tagged LDHA (amino acids 2-332) (Homo sapiens, UniProt P00338). The experiment in a line: LDHA enzyme inhibition assay (NADH fluorescence). To be noted: LDHA IC50 (μM), 1 nM LDHA, NADH and pyruvate, stereochemistry of tested sample given.
Procedure: Test compounds were diluted in 100% DMSO with 1:3 serial dilutions. […] For the enzyme reaction, serially diluted compounds were added to a mixture of enzyme and NADH. […] Following the baseline read, pyruvate was added to the assay plates and the plates were read with excitation 340 nm and emission 480 nm for 10 minutes every 2.5 seconds. A suitable linear timeframe was selected (150-400 s) to calculate the slope of each concentration tested. The raw data were fitted to 4-parameter dose-response curves using the following equation:
fit=(A+((B−A)/(1+((C/x)̂D))))
inv=(C/((((B−A)/(y−A))−)̂(1/D)))
res=(y−fit) • where A=minimum y, B=maximum y, C=50% y max, and D=slope factor.
The curve bottom was set to the background rate (initial 5 second recording prior to addition of pyruvate) and curve top was set to no inhibitor (DMSO only) control wells rate.
The compounds of the present invention were tested for their capacity to inhibit LDHA activity and activation as described in the enzyme inhibition assay described above.
Consider `O=C1C[C@@](c2ccsc2)(c2ccc(N3CCOCC3)c(F)c2)NC(=O)C1Sc1ccccc1Cl` (mixture of isomers) [Example 316, (6S)-3-(2-chlorophenyl) sulfanyl-6-(3-fluoro-4-morpholine-phenyl)-6-(3-thienyl)piperidine-2,4-dione], for which the half-inhibitory concentration (IC50) was determined as 0.044 µM.

In the case of `O=C1C[C@](c2ccsc2)(c2cccc(Oc3ccc(F)nc3Cl)n2)NC(=O)C1Sc1ccccc1Cl` (mixture of isomers) [Example 325, (6S)-6-[6-[(2-chloro-6-fluoro-3-pyridyl)oxy]-2-pyridyl]-3-(2-chlorophenyl) sulfanyl-6-(3-thienyl) piperidine-2,4-dione], the IC50 is 0.162 µM.

As to `C[C@@H](Nc1cccc(C2(c3ccsc3)CC(=O)C(Sc3ccccc3Cl)C(=O)N2)n1)c1ccc(F)cc1` (mixture of isomers) [Example 302, 3-((2-chlorophenyl)thio)-6-(6-((1-(4-fluorophenyl)ethyl)amino)pyridin-2-yl)-6-(thiophen-3-yl) piperidine-2,4-dione], the half-maximal inhibitory concentration (IC50) worked out at 0.03 µM.

Take `O=C1CC(c2ccsc2)(c2cccc(Oc3cccc(F)c3)n2)NC(=O)C1Sc1ccccc1Cl` (single isomer, unassigned) [Example 47, 3-(2-chlorophenyl) sulfanyl-6-[6-(3-fluorophenoxy)-2-pyridyl]-6-(3-thienyl)piperidine-2,4-dione]: the 50% inhibitory concentration (IC50) was found to be 0.12 µM.

For `O=C1CC(c2ccsc2)(c2cccc(Oc3ccc(F)c(F)c3)n2)NC(=O)C1Sc1ccccc1Cl` (single isomer, unassigned) [Example 57, 3-(2-chlorophenyl)sulfanyl-6-[6-(3,4-difluoro-phenoxy)-2-pyridyl]-6-(3-thienyl)piperidine-2,4-dione], the IC50 was found to be 0.086 µM.

Take `O=C1CC(c2ccsc2)(c2cccc(Oc3cncc(F)c3)n2)NC(=O)C1Sc1ccccc1Cl` (single isomer, unassigned) [Example 65, 3-(2-chlorophenyl)sulfanyl-6-[6-[(5-fluoro-3-pyridyl)oxy]-2-pyridyl]-6-(3-thienyl)piperidine-2,4-dione]: the IC50 was determined as 0.056 µM.

As for `O=C1CC(c2ccsc2)(c2cccc(Oc3ccc(F)c(F)c3)n2)NC(=O)C1Sc1ccccc1Cl` (single isomer, unassigned) [Example 77, 3-(2-chlorophenyl)sulfanyl-6-[6-(3,4-difluoro-phenoxy)-2-pyridyl]-6-(3-thienyl)piperidine-2,4-dione], the IC50 was 0.031 µM.

Regarding `O=C1CC(c2ccsc2)(c2cccc(Oc3ccc(F)c(F)c3)n2)NC(=O)C1Sc1ccccc1Cl` (single isomer, unassigned) [Example 78, 3-(2-chlorophenyl)sulfanyl-6-[6-(3,4-difluoro-phenoxy)-2-pyridyl]-6-(3-thienyl)piperidine-2,4-dione], the IC50 was 0.023 µM.

On to `O=C1CC(c2ccsc2)(c2cccc(Oc3cccc(F)c3)n2)NC(=O)C1Sc1ccccc1Cl` (single isomer, unassigned) [Example 79, 3-(2-chlorophenyl)sulfanyl-6-[6-(3-fluorophenoxy)-2-pyridyl]-6-(3-thienyl) piperidine-2,4-dione], for which the 50% inhibitory concentration (IC50) was determined as 0.199 µM.

With `O=C1CC(c2ccsc2)(c2cccc(OCC(F)(F)F)n2)NC(=O)C1Sc1ccccc1Cl` (single isomer, unassigned) [Example 82, 3-(2-chlorophenyl)sulfanyl-6-(3-thienyl)-6-[6-(2,2,2-trifluoroethoxy)-2-pyridyl]piperidine-2,4-dione], the IC50 is 0.049 µM.

With `O=C1CC(c2ccsc2)(c2cccc(Oc3ccc(F)c(Cl)c3)n2)NC(=O)C1Sc1ccccc1Cl` (single isomer, unassigned) [Example 83, 6-(6-(3-chloro-4-fluoro-phenoxy)pyridin-2-yl)-3-((2-chlorophenyl)thio)-6-(thiophen-3-yl) piperidine-2,4-dione], the IC50 is 0.013 µM.

Regarding `O=C1CC(c2ccsc2)(c2cccc(OCC3CC3)n2)NC(=O)C1Sc1ccccc1Cl` (single isomer, unassigned) [Example 84, 3-(2-chlorophenyl)sulfanyl-6-[6-(cyclopropyl-methoxy)-2-pyridyl]-6-(3-thienyl)piperidine-2,4-dione], the IC50 came to 0.008 µM.

With `O=C1CC(c2ccsc2)(c2cccc(OCC(F)(F)F)n2)NC(=O)C1Sc1ccccc1Cl` (single isomer, unassigned) [Example 86, 3-(2-chlorophenyl)sulfanyl-6-(3-thienyl)-6-[6-(2,2,2-trifluoroethoxy)-2-pyridyl]piperidine-2,4-dione], the IC50 came out at 0.022 µM.

`O=C1CC(c2ccsc2)(c2cccc(OCC(F)(F)F)n2)NC(=O)C1Sc1ccccc1Cl` (single isomer, unassigned) [Example 87, 3-(2-chlorophenyl)sulfanyl-6-(3-thienyl)-6-[6-(2,2,2-trifluoroethoxy)-2-pyridyl]piperidine-2,4-dione]: the IC50 came out at 0.01 µM.

Turning to `O=C1CC(c2ccsc2)(c2cccc(Oc3cccc4ncccc34)n2)NC(=O)C1Sc1ccccc1Cl` (single isomer, unassigned) [Example 91, 5-((2-chlorophenyl)thio)-4-hydroxy-6′-(quinolin-5-yloxy)-2-(thiophen-3-yl)-2,3-dihydro-[2,2′-bipyridin]-6(1H)-one], the IC50 turned out to be 0.011 µM.

As to `O=C1CC(c2ccsc2)(c2cccc(OCC3CC3)n2)NC(=O)C1Sc1ccccc1Cl` (single isomer, unassigned) [Example 93, 3-(2-chlorophenyl)sulfanyl-6-[6-(cyclopropyl-methoxy)-2-pyridyl]-6-(3-thienyl)piperidine-2,4-dione], the IC50 was 0.319 µM.

For `O=C1CC(c2ccsc2)(c2cccc(OCC3CC3)n2)NC(=O)C1Sc1ccccc1Cl` (single isomer, unassigned) [Example 97, 3-(2-chlorophenyl)sulfanyl-6-[6-(cyclopropyl-methoxy)-2-pyridyl]-6-(3-thienyl)piperidine-2,4-dione], the IC50 stood at 0.03 µM.

`O=C1CC(c2ccsc2)(c2cccc(OC3CCC(O)C3)n2)NC(=O)C1Sc1ccccc1Cl` (single isomer, unassigned) [Example 104, 3-((2-chlorophenyl)thio)-6-(6-((3-hydroxycyclo-pentyl)oxy)pyridin-2-yl)-6-(thiophen-3-yl) piperidine-2,4-dione]: the concentration for half-maximal inhibition (IC50) was found to be 0.118 µM.

Turning to `O=C1CC(c2ccsc2)(c2cccc(OC3CCC(O)C3)n2)NC(=O)C1Sc1ccccc1Cl` (single isomer, unassigned) [Example 106, 3-((2-chlorophenyl)thio)-6-(6-((3-hydroxy-cyclopentyl)oxy)pyridin-2-yl)-6-(thiophen-3-yl)piperidin-2,4-dione], the IC50 is 0.732 µM.

On to `O=C1CC(c2ccsc2)(c2cccc(Oc3ccc(F)c(Cl)c3)n2)NC(=O)C1Sc1ccccc1Cl` (single isomer, unassigned) [Example 108, 6-(6-(3-chloro-4-fluoro-phenoxy)pyridin-2-yl)-3-((2-chlorophenyl)thio)-6-(thiophen-3-yl) piperidine-2,4-dione], for which the half-maximal inhibitory concentration (IC50) is 0.108 µM.

As to `O=C1CC(c2ccsc2)(c2cccc(NCCC3CC3)n2)NC(=O)C1Sc1ccccc1Cl` (single isomer, unassigned) [Example 110, 3-(2-chlorophenyl)sulfanyl-6-[6-(2-cyclopropylethyl-amino)-2-pyridyl]-6-(3-thienyl)piperidine-2,4-dione], the IC50 was 0.018 µM.
